For the series, the system named is mouse carcinogenicity bioassay, TD50 from CPDB. The series is described as follows: DSSTox (CPDBAS) Carcinogenic Potency Database Summary Mouse Bioassay Results. An outline of the steps: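 Values are TD50 carcinogenic potencies from mouse chronic bioassays, taking the most positive result for each sex-species. Sources are published literature and NCI/NTP studies; target sites reflect author-reported positive findings.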

Setting [1] is: TD50_Mouse_Note: no positive results, TargetSites_Mouse_Female: no positive results.
Where [2] appears, read: TargetSites_Mouse_Female: no positive results.
Setting [3] is: TargetSites_Mouse_BothSexes: no positive results.
Where [4] appears, read: TargetSites_Mouse_Female: liver.
[5] abbreviates: TD50_Mouse_Note: TD50 is harmonic mean of more than one positive test, TargetSites_Mouse_Female: lung.
Setting [6] is: TD50_Mouse_Note: TD50 is harmonic mean of more than one positive test, TargetSites_Mouse_Female: vascular system.
Where [7] appears, read: TD50_Mouse_Note: TD50 is harmonic mean of more than one positive test, TargetSites_Mouse_Female: liver.
Setting [8] is: TargetSites_Mouse_Female: stomach.
The mark [9] stands for this setting: TD50_Mouse_Note: TD50 is harmonic mean of more than one positive test, TargetSites_Mouse_Female: no positive results.
Setting [10] is: TD50_Mouse_Note: no positive results.

The source made the active and inactive calls.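 How the source made its calls: active means a tumour-causing dose and a tumour site recorded for mice in at least one sex group; inconclusive means only government mouse studies exist and were judged inadequate; inactive means mouse studies exist but none gave tumours.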

`C#C[C@]1(O)CC[C@H]2[C@@H]3CCc4cc(OC)ccc4[C@H]3CC[C@@]21C`: the outcome under setting [1] is “inactive; no positive results”. On the same count and under the same terms, in the case of `O=[N+]([O-])/C=C/c1ccccc1` it was “inactive; no positive results”; in that of `CC(C)NCC(O)COc1cccc2ccccc12` (stereo unspecified), “inactive; no positive results”.

As for `CC(C)(C)O`, the Potency (TargetSites_Mouse_Female: thyroid gland) was 295 mmol/kg/day. With `CCN(CC)C(=S)S[Se](SC(=S)N(CC)CC)(SC(=S)N(CC)CC)SC(=S)N(CC)CC`, the Potency under setting [2] was 0.00222 mmol/kg/day. For `COP(=O)(OC)OC=C(Cl)Cl`, the Potency (TD50_Mouse_Note: TD50 is harmonic mean of more than one positive test, TargetSites_Mouse_Female: stomach) was 0.319 mmol/kg/day. As to `C/C=C\c1ccc(OC)cc1`, the outcome under setting [1] was inactive. Regarding `Cc1cc(C)c(S(=O)(=O)O)cc1N=Nc1cc(S(=O)(=O)O)c2ccccc2c1O`, under setting [3], the result was inactive. As for `O=C(O)CC[N+](=O)[O-]`, the outcome under setting [1] is “inactive; no positive results”.

Regarding `Cc1ccc(N)c(C)c1`, the Potency (TargetSites_Mouse_Female: lung) is 0.0787 mmol/kg/day. Turning to `C=C(Cl)CSC(=S)N(CC)CC`, the Potency (TD50_Mouse_Note: TD50 is harmonic mean of more than one positive test, TargetSites_Mouse_Female: mammary gland) is 0.189 mmol/kg/day. Consider `[N-]=[N+]=O`, for which the outcome under setting [1] was “inactive; no positive results”. For the compound `C=CC(=O)NCO`, where the note is “TD50_Mouse_Note: TD50 is harmonic mean of more than one positive test, TargetSites_Mouse_Female: harderian gland, liver, lung, ovary”, the Potency is 0.263 mmol/kg/day. For `COc1ccc(CN(CCN(C)C)c2ccccn2)cc1`, the outcome under setting [1] was “inactive; no positive results”. Consider `Nc1c(Br)cc(Br)c2c1C(=O)c1ccccc1C2=O`, for which the Potency (TD50_Mouse_Note: TD50 is harmonic mean of more than one positive test, TargetSites_Mouse_Female: liver, lung, stomach) is 1.25 mmol/kg/day. As to `C=COC(N)=O`, under “TD50_Mouse_Note: positive test results only by intraperitoneal or intravenous injection, TD50 is harmonic mean of more than one positive, TargetSites_Mouse_Female: liver, vascular system”, the Potency was 0.00142 mmol/kg/day. `CCCCC(CC)COP(=O)(OCC(CC)CCCC)OCC(CC)CCCC` (stereo unspecified): under setting [4], the Potency is 5.89 mmol/kg/day. For `Cc1cn([C@H]2C[C@H](N=[N+]=[N-])[C@@H](CO)O2)c(=O)[nH]c1=O`, under “TD50_Mouse_Note: TD50 is harmonic mean of more than one positive test, TargetSites_Mouse_Female: vagina”, the Potency is 1.11 mmol/kg/day. For the compound `Nc1ccc(Oc2ccc(N)cc2)cc1`, where the note is “TD50_Mouse_Note: TD50 is harmonic mean of more than one positive test, TargetSites_Mouse_Female: harderian gland, liver, thyroid gland”, the Potency was 0.168 mmol/kg/day. On to `c1ccc(N=Nc2ccccc2)cc1`, for which the outcome under setting [1] was “inactive; no positive results”.

Regarding `Clc1nc(Cl)nc(Nc2ccccc2Cl)n1`, the outcome under setting [1] is “inactive; no positive results”.

Regarding `CC(=O)C(N=Nc1ccc(Cl)cc1Cl)C(=O)Nc1ccc(-c2ccc(NC(=O)C(N=Nc3ccc(Cl)cc3Cl)C(C)=O)c(C)c2)cc1C` (stereo unspecified), the outcome under setting [3] was inactive. For the compound `CN1CCC[C@H]1c1cccnc1`, the outcome under setting [1] is “inactive; no positive results”. Take `c1ccc2c(c1)[nH]c1ccccc12`: the Potency (TD50_Mouse_Note: TD50 is harmonic mean of more than one positive test, TargetSites_Mouse_Female: liver, stomach) is 0.981 mmol/kg/day. In the case of `CN(C)C(=O)NC1CC2CC1C1CCCC21` (stereo unspecified), the outcome under setting [1] was “inactive; no positive results”. Same read-out and setting: the result for `COc1ccc([C@@H]2CC(=O)c3c(O)cc(O[C@@H]4O[C@H](CO[C@@H]5O[C@@H](C)[C@H](O)[C@@H](O)[C@H]5O)[C@@H](O)[C@H](O)[C@H]4O)cc3O2)cc1OC` reads “inactive; no positive results”. As for `ClCC(Br)CBr` (stereo unspecified), the Potency (TD50_Mouse_Note: TD50 is harmonic mean of more than one positive test, TargetSites_Mouse_Female: lung, nasal cavity, stomach) was 0.0115 mmol/kg/day. Turning to `CC(C)CON=O`, under setting [5], the Potency is 3.01 mmol/kg/day. In the case of `F`, under setting [1], the outcome was “inactive; no positive results”. As to `O=C(Oc1ccccc1)Oc1ccccc1`, the outcome under setting [1] was “inactive; no positive results”. On the same count and under the same terms, in the case of `c1ccc2[nH]ccc2c1` it was “inactive”; in that of `C1C2OC2C2C1C1CC2C2OC12` (stereo unspecified), “inactive; no positive results”; in that of `O=C(O)COc1cc(Cl)c(Cl)cc1Cl`, “inactive; no positive results”. Take `NNc1ccc(C(=O)O)cc1`: the Potency under setting [6] is 2.97 mmol/kg/day. Also, the result under setting [1] was inactive.

Regarding `O=C1CN(/N=C/c2ccc([N+](=O)[O-])o2)C(=O)N1`, for the setting “TargetSites_Mouse_Female: ovary”, the Potency is 5.88 mmol/kg/day.

Consider `S=C1NCCN1`, for which the Potency (TD50_Mouse_Note: TD50 is harmonic mean of more than one positive test, TargetSites_Mouse_Female: liver, pituitary gland, thyroid gland) was 0.23 mmol/kg/day. `C=C(C)[C@H]1CC=C(C)CC1`: under setting [1], the outcome was “inactive; no positive results”. Take `NNCc1ccccc1`: where the note is “TargetSites_Mouse_Female: lung”, the Potency was 0.437 mmol/kg/day. As to `CCn1nc(C)c2c1C(c1ccccc1)=NCC(=O)N2`, the Potency under setting [7] is 0.425 mmol/kg/day. `O=C(Nc1nc(-c2ccc([N+](=O)[O-])o2)cs1)C(F)(F)F`: under setting [8], the Potency is 0.0325 mmol/kg/day. For the compound `Nc1cc(Cl)c(N)c(Cl)c1`, under setting [7], the Potency is 4.54 mmol/kg/day. As to `CC1=CC(=O)CC(C)(C)C1`, the outcome under setting [1] is “inactive; no positive results”. Still for that read-out and setting: in the case of `C=CCCl` it was “inactive; no positive results”. For the compound `CN(C)c1ccc(Cc2ccc(N(C)C)cc2)cc1`, the Potency under setting [4] was 0.814 mmol/kg/day. As for `NC(=O)OCC(COC(N)=O)c1ccccc1`, the Potency under setting [7] is 31.1 mmol/kg/day. `N[C@@H](Cc1ccc(N(CCCl)CCCl)cc1)C(=O)O`: the Potency (TD50_Mouse_Note: positive test results only by intraperitoneal or intravenous injection, TD50 is harmonic mean of more than one positive, TargetSites_Mouse_Female: lung) was 0.000491 mmol/kg/day. Consider `O=NO`, for which the outcome under setting [1] was “inactive; no positive results”. On to `OCc1ccco1`, for which the Potency under setting [2] was 2.68 mmol/kg/day. On to `Nc1cccc2c(N)cccc12`, for which the Potency (TD50_Mouse_Note: TD50 is harmonic mean of more than one positive test, TargetSites_Mouse_Female: liver, lung, thyroid gland) was 1.02 mmol/kg/day.

For the compound `CC(C)N(C(=O)SC/C(Cl)=C/Cl)C(C)C`, the Potency under setting [9] was 0.0988 mmol/kg/day.

As for `CN(C)C(=O)Nc1cccc(C(F)(F)F)c1`, the outcome under setting [1] was “inactive; no positive results”. Regarding `S=[Se]`, for the setting “TargetSites_Mouse_Female: liver, lung”, the Potency was 0.624 mmol/kg/day. Regarding `NNc1nc(-c2ccc([N+](=O)[O-])o2)cs1`, the Potency under setting [8] was 0.0725 mmol/kg/day.

For the compound `CN[C@H]1CC[C@@H](c2ccc(Cl)c(Cl)c2)c2ccccc21`, the outcome under setting [1] is “inactive; no positive results”. With `N#[N+]c1ccccc1`, the Potency under setting [5] was 0.0712 mmol/kg/day. `CN(C)C(=O)Nc1ccc(Cl)cc1`: the outcome under setting [1] is “inactive; no positive results”. As to `CCN(Cc1cccc(S(=O)(=O)[O-])c1)c1ccc(C(=C2C=CC(=[N+](C)C)C=C2)c2ccc(N(CC)Cc3cccc(S(=O)(=O)O)c3)cc2)cc1`, the outcome under setting [1] is “inactive; no positive results”. Turning to `O=C(O)CN(CC(=O)O)CC(=O)O`, the Potency (TD50_Mouse_Note: TD50 is harmonic mean of more than one positive test, TargetSites_Mouse_Female: kidney) is 13.9 mmol/kg/day. Moreover, under setting [1], the outcome was “inactive; no positive results”. With `CNc1ncnc2nc[nH]c12`, the outcome under setting [1] was “inactive; no positive results”. On the same count and under the same terms, in the case of `O=S(=O)([O-])[O-].[Cd+2]` it was “inactive”; in that of `FC(Cl)(Cl)Cl`, “inactive; no positive results”; in that of `O`, “inactive; no positive results”.

`OC[C@H]1O[C@@](CO)(O[C@H]2O[C@H](CO)[C@@H](O)[C@H](O)[C@H]2O)[C@@H](O)[C@@H]1O`: the outcome under setting [1] was “inactive; no positive results”. Regarding `CC(C)CCC[C@@H](C)[C@H]1CC[C@H]2[C@@H]3CC=C4C[C@@H](OC(=O)Cc5ccc(N(CCCl)CCCl)cc5)CC[C@]4(C)[C@H]3CC[C@]12C`, the Potency (TD50_Mouse_Note: TD50 is harmonic mean of more than one positive test, TargetSites_Mouse_Female: hematopoietic system, lung, myocardium) was 0.000955 mmol/kg/day.

Take `CCc1ccc(C(c2ccc(CC)cc2)C(Cl)Cl)cc1`: the outcome under setting [1] was “inactive; no positive results”. For `BrCCBr`, the Potency (TD50_Mouse_Note: TD50 is harmonic mean of more than one positive test, greater than ten-fold variation among TD50 values for positive res, TargetSites_Mouse_Female: esophagus, lung, mammary gland, nasal cavity, stomach, subcutaneous tissue, vascular system) is 0.0397 mmol/kg/day.

Take `ClC(Br)Br`: under setting [4], the Potency is 0.667 mmol/kg/day. Turning to `CN(N=O)c1ncnc2nc[nH]c12`, the Potency under setting [2] is 0.101 mmol/kg/day. As to `CN(C)C(=S)SC(=S)N(C)C`, the outcome under setting [1] is “inactive; no positive results”. Still for that read-out and setting: in the case of `O=S(=O)(O)c1ccc(N=Nc2c(O)ccc3cc(S(=O)(=O)O)ccc23)cc1` it was “inactive; no positive results”; in that of `[O-][Cl+]O`, “inactive; no positive results”.

Take `Cc1ccc2c(c1[N+](=O)[O-])C(=O)c1ccccc1C2=O`: under setting [6], the Potency was 0.00584 mmol/kg/day. Regarding `c1ccccc1`, the Potency (TD50_Mouse_Note: TD50 is harmonic mean of more than one positive test, greater than ten-fold variation among TD50 values for positive res, TargetSites_Mouse_Female: ear Zymbals gland, hematopoietic system, lung, mammary gland, ovary) is 0.992 mmol/kg/day. Regarding `O=C(O[C@@H]1Cc2c(O)cc(O)cc2O[C@@H]1c1cc(O)c(O)c(O)c1)c1cc(O)c(O)c(O)c1`, the outcome under setting [10] is “inactive; no positive results”.

In the case of `Cc1cccc2ccccc12`, the outcome under setting [1] was “inactive; no positive results”. On the same count and under the same terms, the result for `Oc1ccc(OCc2ccccc2)cc1` reads “inactive; no positive results”. Consider `Nc1ccc(Cl)cc1N`, for which, under setting [7], the Potency is 9.4 mmol/kg/day.

For the compound `COC(=O)C1=C(C)NC(C)=C(C(=O)OCCN2CCN(C(c3ccccc3)c3ccccc3)CC2)C1c1cccc([N+](=O)[O-])c1` (stereo unspecified), the outcome under setting [1] was “inactive; no positive results”. `CCC(O)OC(O)CC` (stereo unspecified): under setting [1], the outcome was “inactive; no positive results”.

Turning to `COc1ccc2c3c1O[C@H]1[C@@H](O)C=C[C@H]4[C@@H](C2)N(C)CC[C@@]341`, the outcome under setting [1] was “inactive; no positive results”. On to `O=C1Nc2ccc(Cl)cc2C(c2ccccc2)=NC1O` (stereo unspecified), for which the Potency (TD50_Mouse_Note: TD50 is harmonic mean of more than one positive test, TargetSites_Mouse_Female: liver, thyroid gland) is 0.125 mmol/kg/day. As for `Cc1ccc([N+](=O)[O-])cc1`, the outcome under setting [1] is “inactive; no positive results”. Turning to `OC(O)C(Cl)(Cl)Cl`, under setting [9], the Potency is 0.604 mmol/kg/day. For `C[N+](C)(C)CCO`, under setting [10], the outcome was “inactive; no positive results”.

These data come from PubChem BioAssay AID1199 (EPA DSSTox, 2008).
